Measured values published in the NIST ThermoML archive (doi:10.1016/j.fluid.2013.03.008).

Conditions: Liquid, Closed cell (Static) method

CCCCCCCCCCCCCC(=O)OCC [ethyl tetradecanoate]
Conditions | vapor or sublimation pressure [kPa]
392.17 K | 0.1
398.52 K | 0.15
404.27 K | 0.2
410.95 K | 0.3
416.1 K | 0.4
419.65 K | 0.5
425.69 K | 0.65
430.55 K | 0.8
434.91 K | 1
439.1 K | 1.2
443.82 K | 1.5

CCCCCCCCCCCCCCCC(=O)OCC [ethyl hexadecanoate]
Conditions | vapor or sublimation pressure [kPa]
412.63 K | 0.1
419.36 K | 0.15
425.07 K | 0.2
433.31 K | 0.3
438.71 K | 0.4
442.68 K | 0.5
448.35 K | 0.65
452.99 K | 0.8
457.98 K | 1
462.64 K | 1.2
468.07 K | 1.5
